Measurements from US6617314B2, “Injectable formulations of avermectins and milbemycins” (Bayer Aktiengesellschaft, priority 1996, dated 2003).

Assay: solubility of ivermectin in solvents
Type: physicochemical
Description: The solubility of ivermectin in benzyl alcohol is >40% by weight and in castor oil ˜4% by weight.

## 22,23-dihydroavermectin B1 [ivermectin]
Solvent benzyl alcohol
  solubility in benzyl alcohol: > 40 % by weight
Solvent castor oil
  solubility in castor oil: ~4 % by weight
